In article PMC11671526, “β-caryophyllene sensitizes hepatocellular carcinoma cells to chemotherapeutics and inhibits cell malignancy through targeting MAPK signaling pathway” (Frontiers in Pharmacology, 2024):

System: HepG2 cells
Assay: RNA-seq transcriptome analysis of differentially expressed genes
Format: cell-based, human
Details: BCP vs control HepG2
Protocol: The quality and concentration of RNA were examined by MOPS RNA electrophoresis and Eppendorf BioSpectrometer. The transcriptome analysis was performed by BGI-Wuhan China. The RNA-seq dataset of this study is accessible in the Gene Expression Omnibus (GEO) with an access number of GSE276099. The sequence library for each sample was prepared using the BGISEQ-500 platform with a 50-bp single-end (SE50) format. […]2.2.1) was used to align the clean reads to the reference genome and alignment of the clean reads to the reference genes was carried out using Bowtie2 (v2.4.5) ([Langmead and Salzberg, 2012]; [Kim et al., 2015]). Gene expression levels were calculated by RSEM (v1.3.1) ([Li and Dewey, 2011]). Analysis of differential gene expression was performed using edgeR in the Bioconductor software package ([Robinson et al., 2010]). Using a standard protocol, the RNA samples were also examined by reverse transcription and quantitative polymerase chain reaction (RT-qPCR). In brief, for reverse transcription, total RNA (1 μg) and gDNA wiper Mix were incubated at 42°C for 2 min. The samples were immediately incubated with a master mix containing 10 pmol/μL of poly (dT) primers at 37°C for 15 min and 85°C for 5 s. To detect the expression of specific genes by qPCR analysis, gene-specific primers (shown in Supplementary Table S1) were mixed with the ChamQ Universal SYBER qPCR Master Mix and the reaction was conducted using the Roche Lightcycler 480. The GAPDH value was used to normalize the results of each gene. The RNA-seq data of BCP-treated HepG2 cells were screened for DEGs. Gene symbols were turned into Enterz ID using the org.Hs.eg.db Bio-conductor R package. The cluster profiler (v4.6.2) package was used to perform the Kyoto Encyclopedia of Genes and Genomes (KEGG) and Gene Ontology (GO) enrichment analyses ([Wu et al., 2021]). Following the Transcript per million (TPM) data of the dataset, the line chart, and heatmap were plotted using ggplot2 and pheatmap R packages, respectively.

C=C1CC/C=C(\C)CC[C@@H]2[C@@H]1CC2(C)C [BCP, β-caryophyllene]
logFC LIPH (gene LIPH, RNA-seq): -0.6901 | change LIPH (gene LIPH, DEG direction): Down | logFC LOC107984590 (gene LOC107984590, RNA-seq): -1.673 | change LOC107984590 (gene LOC107984590, DEG direction): Down | logFC LRRK1 (gene LRRK1, RNA-seq): -0.9626 | change LRRK1 (gene LRRK1, DEG direction): Down | logFC LYSMD4 (gene LYSMD4, RNA-seq): -0.6364 | change LYSMD4 (gene LYSMD4, DEG direction): Down | logFC MAB21L4 (gene MAB21L4, RNA-seq): 0.9293 | change MAB21L4 (gene MAB21L4, DEG direction): Up | logFC MAFA (gene MAFA, RNA-seq): -0.8959 | change MAFA (gene MAFA, DEG direction): Down | logFC MAGEB17 (gene MAGEB17, RNA-seq): -2.787 | change MAGEB17 (gene MAGEB17, DEG direction): Down | logFC MALL (gene MALL, RNA-seq): -0.8293 | change MALL (gene MALL, DEG direction): Down | logFC MAMDC2 (gene MAMDC2, RNA-seq): 1.292 | change MAMDC2 (gene MAMDC2, DEG direction): Up | logFC MAP1A (gene MAP1A, RNA-seq): -1.186 | change MAP1A (gene MAP1A, DEG direction): Down | logFC MAP7 (gene MAP7, RNA-seq): 0.7065 | change MAP7 (gene MAP7, DEG direction): Up | logFC MEF2B (gene MEF2B, RNA-seq): -1.481 | change MEF2B (gene MEF2B, DEG direction): Down | logFC METTL7A (gene METTL7A, RNA-seq): -1.025 | change METTL7A (gene METTL7A, DEG direction): Down | logFC MFSD12 (gene MFSD12, RNA-seq): 0.7075 | change MFSD12 (gene MFSD12, DEG direction): Up | logFC MMP17 (gene MMP17, RNA-seq): 0.8815 | change MMP17 (gene MMP17, DEG direction): Up | logFC MMP24 (gene MMP24, RNA-seq): 1.043 | change MMP24 (gene MMP24, DEG direction): Up | logFC MNX1 (gene MNX1, RNA-seq): -0.6432 | change MNX1 (gene MNX1, DEG direction): Down | logFC MRPS6 (gene MRPS6, RNA-seq): -0.923 | change MRPS6 (gene MRPS6, DEG direction): Down | logFC MTUS2 (gene MTUS2, RNA-seq): -1.542 | change MTUS2 (gene MTUS2, DEG direction): Down | logFC MXD4 (gene MXD4, RNA-seq): -0.5803 | change MXD4 (gene MXD4, DEG direction): Down | logFC MYEOV (gene MYEOV, RNA-seq): -0.7568 | change MYEOV (gene MYEOV, DEG direction): Down | logFC MYH15 (gene MYH15, RNA-seq): -1.78 | change MYH15 (gene MYH15, DEG direction): Down | logFC MYLK3 (gene MYLK3, RNA-seq): 0.5851 | change MYLK3 (gene MYLK3, DEG direction): Up | logFC MYT1L (gene MYT1L, RNA-seq): 0.8858 | change MYT1L (gene MYT1L, DEG direction): Up | logFC MYZAP (gene MYZAP, RNA-seq): -1.044 | change MYZAP (gene MYZAP, DEG direction): Down | logFC NDC80 (gene NDC80, RNA-seq): 0.6133 | change NDC80 (gene NDC80, DEG direction): Up | logFC NES (gene NES, RNA-seq): -0.6748 | change NES (gene NES, DEG direction): Down | logFC NEXN (gene NEXN, RNA-seq): 0.7024 | change NEXN (gene NEXN, DEG direction): Up | logFC NKD1 (gene NKD1, RNA-seq): 1.009 | change NKD1 (gene NKD1, DEG direction): Up | logFC NKD2 (gene NKD2, RNA-seq): 0.8671 | change NKD2 (gene NKD2, DEG direction): Up | logFC NOG (gene NOG, RNA-seq): -0.6516 | change NOG (gene NOG, DEG direction): Down | logFC NOXO1 (gene NOXO1, RNA-seq): -0.746 | change NOXO1 (gene NOXO1, DEG direction): Down | logFC NPIPB8 (gene NPIPB8, RNA-seq): -2.227 | change NPIPB8 (gene NPIPB8, DEG direction): Down | logFC NR4A1 (gene NR4A1, RNA-seq): 0.6275 | change NR4A1 (gene NR4A1, DEG direction): Up | logFC NR4A3 (gene NR4A3, RNA-seq): 0.9047 | change NR4A3 (gene NR4A3, DEG direction): Up | logFC OASL (gene OASL, RNA-seq): -1.216 | change OASL (gene OASL, DEG direction): Down | logFC P4HA3 (gene P4HA3, RNA-seq): 1.2167 | change P4HA3 (gene P4HA3, DEG direction): Up | logFC PAK6 (gene PAK6, RNA-seq): -1.538 | change PAK6 (gene PAK6, DEG direction): Down | logFC PALM3 (gene PALM3, RNA-seq): -0.7485 | change PALM3 (gene PALM3, DEG direction): Down | logFC PAPPA (gene PAPPA, RNA-seq): 0.997 | change PAPPA (gene PAPPA, DEG direction): Up | logFC PAQR5 (gene PAQR5, RNA-seq): -0.667 | change PAQR5 (gene PAQR5, DEG direction): Down | logFC PCSK1 (gene PCSK1, RNA-seq): 0.7709 | change PCSK1 (gene PCSK1, DEG direction): Up | logFC PDE7B (gene PDE7B, RNA-seq): 0.7688 | change PDE7B (gene PDE7B, DEG direction): Up | logFC PDK1 (gene PDK1, RNA-seq): 0.6017 | change PDK1 (gene PDK1, DEG direction): Up | logFC PDK4 (gene PDK4, RNA-seq): 1.109 | change PDK4 (gene PDK4, DEG direction): Up | logFC PI3 (gene PI3, RNA-seq): -1.544 | change PI3 (gene PI3, DEG direction): Down | logFC PLD1 (gene PLD1, RNA-seq): 0.6612 | change PLD1 (gene PLD1, DEG direction): Up | logFC PLEKHG1 (gene PLEKHG1, RNA-seq): 0.983 | change PLEKHG1 (gene PLEKHG1, DEG direction): Up | logFC PNPLA6 (gene PNPLA6, RNA-seq): -0.6244 | change PNPLA6 (gene PNPLA6, DEG direction): Down | logFC PPP1R15A (gene PPP1R15A, RNA-seq): 0.636 | change PPP1R15A (gene PPP1R15A, DEG direction): Up | logFC PRICKLE2 (gene PRICKLE2, RNA-seq): -2.048 | change PRICKLE2 (gene PRICKLE2, DEG direction): Down | logFC PRKCZ (gene PRKCZ, RNA-seq): 0.789 | change PRKCZ (gene PRKCZ, DEG direction): Up | logFC PRRG4 (gene PRRG4, RNA-seq): -0.7407 | change PRRG4 (gene PRRG4, DEG direction): Down | logFC PSD4 (gene PSD4, RNA-seq): -0.8285 | change PSD4 (gene PSD4, DEG direction): Down | logFC PTGS1 (gene PTGS1, RNA-seq): -1.083 | change PTGS1 (gene PTGS1, DEG direction): Down | logFC PXDN (gene PXDN, RNA-seq): 0.6603 | change PXDN (gene PXDN, DEG direction): Up | logFC RAB17 (gene RAB17, RNA-seq): -1.103 | change RAB17 (gene RAB17, DEG direction): Down | logFC RAB43 (gene RAB43, RNA-seq): -0.73 | change RAB43 (gene RAB43, DEG direction): Down | logFC RAPGEF3 (gene RAPGEF3, RNA-seq): -0.8733
